“And” between values parts separate entries of the source, which are not always exact repeats. Equal entries are not always repeated. “Also recorded” adds a separate entry of the source.
Columns and labels:
phospho-Akt(Ser473) = test: Constitutive Akt phosphorylation in leukemia and lymphoma cell lines (immunoblot); assay type: cell-based
Protocol: A large panel of leukemia and lymphoma cell lines was assessed for constitutive Akt phosphorylation. These cell lines represent B-lymphoma, T-lymphoma, ALL, Malignant histiocytosis, DLBCL and AML. […] Thereafter, cell were lysed, size-fractioned and immunoblotted with antibodies directed against phospho-Akt(Ser473).
The PI3K pathway is frequently deregulated in leukemia and lymphoma cell lines. […] In addition, PI3K pathway activation is dependent on p110δ.

[1] = system: relapsed or refractory indolent B-cell NHL and CLL; test: Clinical study, combination with rituximab or bendamustine, 20 patients (Example 39); conditions: human, in vivo
Protocol: (§1) 20 patients were enrolled, including 12 with iNHL and 8 with CLL. All patients received the compound of formula I, either 100 mg orally twice per day (BID) or 150 mg orally twice per day (BID) for as long as the patient was benefiting. Patients also received either rituximab 375 mg/m^2 administered weekly for 8 weeks, starting on Day 1 of Cycle 1, or bendamustine 90 mg/m^2 administered on Days 1 and 2 of each cycle for 6 cycles. Tumor response was evaluated according to standard criteria.

[2] = system: AKT (ser473), GSK3β (ser9); test: AKT and GSK3β phosphorylation in CD19+ CLL cells with lenalidomide (immunoblot); conditions: 0.5 μM lenalidomide and/or 1 or 10 μM compound, 48 hours
Protocol: Immunoblots were performed.
AKT phosphorylation at ser473 was assessed by immunoblot.
GSK3β phosphorylation at ser9 was assessed by immunoblot. Results are shown from one of four experiments.
CD19+ cells from CLL patients (N=3) were transfected with siRNA targeted to PI3K-δ, PI3K-γ or a nonsense and then incubated with or without 0.5 μM lenalidomide for 48 hours. AKT phosphorylation at ser473 was assessed by immunoblot. Results are shown from one of three experiments.

CLL cells [3] = test: BH3 profiling (mitochondrial depolarization) of CLL cells; assay type: cell-based, human; conditions: 24 hours; p=0.075
Protocol: CLL patient peripheral blood, bone marrow, and lymph node samples were analyzed by either the plate-based fluorimetry or FACS method. Briefly, PBMCs from CLL patients were made into single cell suspensions and gently permeabilized using digitonin (0.002%). For the fluorimtery-based method, 100 μM JC-1 (Invitrogen) was added at this time and cells were then loaded onto a 384-well plate, with individual wells containing individual BH3-only peptides. The JC1-BH3 assays were then conducted in triplicate on a Tecan Safire 2 with […] and Em 590+/−20 nm with a three-hour time course. For the FACS-based method, single cell suspensions from CLL patient PBMCs were stained using human Fc Block (BD Pharmingen) followed by anti-CD19-V450 (BD Pharmingen) and anti-CXCR4-APC (BD Pharmingen). […] JC-1 was measured from the 488-nm laser using a 530/30-nm filter (FITC) and a 585/42-nm filter (PE), and the degree of mitochondrial depolarization was calculated using the surrogate of the change in the median of PE signal. The mitochondrial depolarization reported in response to each BH3 peptide is normalized relative to the median percentage change in PE fluorescence of the JC-1 dye with a negative control, dimethyl sulfoxide (DMSO) (0%) and a positive control, the mitochondrial uncoupling agent carbonyl cyanide 4-(trifluoromethoxy)-phenylhydrazone (FCCP) (100%). […]

HuVECs = test: In vitro angiogenesis assay (tube formation); assay type: cell-based, human; conditions: 0, 1.0, or 10 μM, 8 h; p<0.05
Protocol: HUVEC and endothelial growth media were obtained from Lonza (Walkersville, Md., USA). […] After 8 h, tube formation was evaluated using Leika DM IL microscopy (Leica Microsystems, Wetzlar, Germany) and analyzed with IM50 software (Leica Microsystems Imaging Solutions, Cambridge, UK). HUVEC cell migration and rearrangement was visualized, and the number of branching points counted.
The effect of P110δ inhibition on angiogenesis was investigated.

[4] = system: previously treated B-cell malignancies (iNHL, CLL); test: Clinical study, combination with rituximab or bendamustine, 49 patients (Example 42); conditions: human, in vivo
From the text: 49 patients were enrolled in the study, including 27 with iNHL and 22 with CLL. At the baseline, patients had adverse prognostic characteristics, including older age, bulky adenopathy, and refractory disease. All patients had received ≧1 prior treatment regimen and some had received as many 9 prior regimens. Prior treatment included rituximab, alkylating agents and/or fludarabine; the majority of patients with iNHL had been treated with prior anthracycline-containing therapy. Follow-up was early in many patients, with durations of therapy ranging from 1 to 12 cycles.
as §1, with “All” for “20 patients were enrolled, including 12 with iNHL and 8 with CLL. All”

CLL cells [5] = assay type: cell-based, human
Protocol: (§2) This pro-survival effect was abrogated by the compound of formula I, which reduced CLL cell viability to 85±3% of controls at 48 hours (mean±SEM, n=15, *P<0.05). […] BCR cross-linking induces secretion of the chemokines CCL3 and CCL4 by CLL cells, which was quantified in CLL supernatants by ELISA.
(§3) The CCL3 concentrations were reduced by the compound of formula I from 943±535 pg/mL to 156±8 pg/mL, and the CCL4 concentrations from 7433±4463 pg/mL to 316±53 pg/mL (mean±SEM, n=5, *P<0.05).

CLL-NLC co-cultures = assay type: cell-based, human
Protocol: as §2, §3

CIIbeta = CIIbeta (Homo sapiens, UniProt O00750); test: InvitroGen Adapta kinase assay, CIIbeta; assay type: biochemical
Sequence of CIIbeta (O00750 whole entry): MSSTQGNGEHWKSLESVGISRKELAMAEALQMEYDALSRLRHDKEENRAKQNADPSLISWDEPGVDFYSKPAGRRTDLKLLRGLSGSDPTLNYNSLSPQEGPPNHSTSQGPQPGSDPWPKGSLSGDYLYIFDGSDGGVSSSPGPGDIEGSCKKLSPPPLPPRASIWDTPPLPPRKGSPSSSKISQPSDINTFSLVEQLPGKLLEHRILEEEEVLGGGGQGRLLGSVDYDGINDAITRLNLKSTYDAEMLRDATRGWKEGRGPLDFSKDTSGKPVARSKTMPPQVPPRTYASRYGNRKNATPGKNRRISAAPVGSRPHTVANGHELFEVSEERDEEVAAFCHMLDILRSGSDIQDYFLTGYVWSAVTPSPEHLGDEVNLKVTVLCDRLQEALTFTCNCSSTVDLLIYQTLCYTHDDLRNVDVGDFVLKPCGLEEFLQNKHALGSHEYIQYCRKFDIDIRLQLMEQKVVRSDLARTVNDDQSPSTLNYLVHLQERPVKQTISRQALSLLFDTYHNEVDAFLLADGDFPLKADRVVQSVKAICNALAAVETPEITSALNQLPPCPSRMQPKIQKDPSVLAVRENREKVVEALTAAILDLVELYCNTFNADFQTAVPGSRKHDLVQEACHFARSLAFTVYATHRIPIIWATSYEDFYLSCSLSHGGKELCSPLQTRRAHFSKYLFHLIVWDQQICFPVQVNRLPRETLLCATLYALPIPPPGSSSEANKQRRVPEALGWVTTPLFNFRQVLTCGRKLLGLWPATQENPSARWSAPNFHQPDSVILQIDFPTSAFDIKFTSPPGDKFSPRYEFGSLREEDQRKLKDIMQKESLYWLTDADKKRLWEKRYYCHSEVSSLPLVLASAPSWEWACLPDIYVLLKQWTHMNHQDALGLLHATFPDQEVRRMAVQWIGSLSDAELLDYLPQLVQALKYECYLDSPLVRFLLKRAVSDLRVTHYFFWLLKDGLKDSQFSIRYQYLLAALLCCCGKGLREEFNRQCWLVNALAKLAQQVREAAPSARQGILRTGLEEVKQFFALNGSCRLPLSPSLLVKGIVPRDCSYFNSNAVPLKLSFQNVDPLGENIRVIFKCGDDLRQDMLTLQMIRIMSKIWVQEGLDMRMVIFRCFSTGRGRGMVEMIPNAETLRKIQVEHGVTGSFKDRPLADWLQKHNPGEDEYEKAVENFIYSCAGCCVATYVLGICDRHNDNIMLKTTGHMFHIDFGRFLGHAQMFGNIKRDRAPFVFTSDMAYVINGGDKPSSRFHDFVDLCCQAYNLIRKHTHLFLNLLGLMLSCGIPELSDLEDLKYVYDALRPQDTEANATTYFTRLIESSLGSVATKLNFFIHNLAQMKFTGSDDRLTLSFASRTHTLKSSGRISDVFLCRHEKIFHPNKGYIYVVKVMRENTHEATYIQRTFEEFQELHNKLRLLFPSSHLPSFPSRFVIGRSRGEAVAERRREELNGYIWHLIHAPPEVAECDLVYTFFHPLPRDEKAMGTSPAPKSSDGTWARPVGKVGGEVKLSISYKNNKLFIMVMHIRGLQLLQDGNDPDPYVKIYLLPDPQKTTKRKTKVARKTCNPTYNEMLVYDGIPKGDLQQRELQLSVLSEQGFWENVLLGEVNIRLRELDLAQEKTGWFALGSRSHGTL

Protocol for patient MM cells: All MM cell lines were cultured in RPMI1640 medium. Bone marrow stromal cells (BMSCs) were cultured in Dulbecco's modification of Eagle's medium (DMEM) (Sigma) containing 15% fetal bovine serum, 2 mM L-glutamine (Life Technologies), 100 U/mL penicillin, and 100 μg/mL streptomycin (Life Technologies). […] Patient MM and BM cells were obtained from BM samples after informed consent was obtained per the Declaration of Helsinki and approval by the Institutional Review Board of the Dana-Farber Cancer Institute (Boston, Mass.). BM mononuclear cells were separated using Ficoll-Paque™ density sedimentation, and plasma cells were purified (>95% CD138+) by positive selection with anti-CD138 magnetic activated cell separation micro beads (Miltenyi Biotec, Auburn, Calif.). Tumor cells were also purified from the BM of MM patients using the RosetteSep negative selection system (StemCell Technologies, Vancouver, BC, Canada).
Data represent mean±SD viability, assessed by MTT assay of triplicate cultures, expressed as percentage of untreated controls.

For CC[C@H](Nc1ncnc2[nH]cnc12)c1nc2cccc(F)c2c(=O)n1-c1ccccc1 [Compound I, 5-fluoro-3-phenyl-2-[1-(9H-purin-6-ylamino)-propyl]-3H-quinazolin-4-one], the “cytotoxicity against patient MM cells” value (patient MM cells) was “induced cytotoxicity against patient MM cells”, the “cell lines in which constitutive AKT phosphorylation was inhibited” value (phospho-Akt(Ser473); 10 μM, 2 hrs, B-cell and T-cell lymphomas included) was 11 out of 11 and the “constitutive Akt(Ser473) phosphorylation” value (phospho-Akt(Ser473); 2 hours treatment) was “inhibits Akt phosphorylation; also recorded: Reduction in Akt(Ser473) was achieved for all cell lines”. For the same compound, the “cell lines in which constitutive AKT phosphorylation was inhibited” value (phospho-Akt(Ser473); cell lines with constitutive p-AKT) was 13 of 13 and 13 out of 13, the dose-limiting toxicities [1] was “No dose-limiting toxicities related to the compound of formula I were observed” and the “cytotoxicity against p110δ-positive MM cells” value (MM cell lines) was “induced cytotoxicity against LB and INA-6 mM cells (p110δ-positive) in a dose- and time-dependent fashion”. For the same compound, the “cytotoxicity in p110δ-negative cell lines” value (MM cell lines) was “minimal cytotoxicity”, the “AKT activation / phosphorylation (ser473) with lenalidomide” value [2] was “resulted in prevention of PI3K activity” and the “GSK3β phosphorylation (ser9)” value ([2]; N=4) was “preventable by co-treatment with the compound of formula I”. The “mitochondrial priming of stroma-exposed CLL cells” value (CLL cells [3]) was “increased mitochondrial priming”, the capillary-like tube formation (HuVECs) was “inhibited capillary-like tube formation in a dose-dependent fashion” and the dose-limiting toxicities [4] was “No dose-limiting toxicities related to the compound of formula I were observed”. The “supernatant CCL3 concentration” value (CLL cells [5]; BCR cross-linking, from 4060±1392 pg/mL, mean±SEM, n=6) was 2901 ± 1220 pg/mL, the “supernatant CCL4 level” value (CLL cells [5]; BCR cross-linking, from 5721±1789 pg/mL, mean±SEM, n=6) was 3223 ± 1311 pg/mL and the “CLL cell viability, % of controls” value (CLL cells [5]; human, 48 h) was 85±3%. It also gave a CXCL13 level (CLL-NLC co-cultures; CLL-NLC co-cultures, from 151±35, n=4) of 70 ± 27 pg/mL, a CCL3 concentration (CLL-NLC co-cultures; CLL-NLC co-cultures, from 943±535 pg/mL, n=5) of 156 ± 8 pg/mL and a CCL4 concentration (CLL-NLC co-cultures; CLL-NLC co-cultures, from 7433±4463 pg/mL, n=5) of 316 ± 53 pg/mL. For the same compound, the “CLL cell viability, % of untreated controls” value (CLL-NLC co-cultures; human, 48 h) was 64±6% and the IC50 (CIIbeta) was > 1000 nM.
